From the NIST ThermoML archive (doi:10.1021/je050050p)

Assay: xn = mol fraction of the nth substance listed
Conditions: Liquid, Vibrating tube method

CN(C)C=O [dimethylformamide] + O=C=O
Conditions	mass density [kg/m3]
352.87 K, 13027 kPa, x2 = 0.4268	908.06
352.87 K, 13995 kPa, x2 = 0.4268	909.43
352.87 K, 14004 kPa, x2 = 0.2876	910.39
352.87 K, 15002 kPa, x2 = 0.4268	910.84
352.87 K, 15013 kPa, x2 = 0.2876	911.48
352.87 K, 16013 kPa, x2 = 0.2876	912.56
352.87 K, 16029 kPa, x2 = 0.4268	912.27
352.87 K, 17030 kPa, x2 = 0.4268	913.63
352.87 K, 17044 kPa, x2 = 0.2876	913.64
352.87 K, 18010 kPa, x2 = 0.4268	914.96
352.87 K, 18012 kPa, x2 = 0.2876	914.66
352.87 K, 19003 kPa, x2 = 0.4268	916.29
352.87 K, 19015 kPa, x2 = 0.2876	915.7
352.87 K, 20024 kPa, x2 = 0.2876	916.74
352.87 K, 20032 kPa, x2 = 0.4268	917.62
352.87 K, 21004 kPa, x2 = 0.2876	917.74
352.87 K, 21047 kPa, x2 = 0.4268	918.93
352.87 K, 22005 kPa, x2 = 0.4268	920.15
352.87 K, 22030 kPa, x2 = 0.2876	918.79
352.87 K, 23001 kPa, x2 = 0.4268	921.41
352.87 K, 23027 kPa, x2 = 0.2876	919.77
352.87 K, 24014 kPa, x2 = 0.4268	922.68
352.87 K, 24021 kPa, x2 = 0.2876	920.77
352.87 K, 25022 kPa, x2 = 0.2876	921.74
352.87 K, 25024 kPa, x2 = 0.4268	923.93
362.68 K, 13997 kPa, x2 = 0.6235	842.98
362.68 K, 15019 kPa, x2 = 0.6235	847.62
362.68 K, 16021 kPa, x2 = 0.6235	851.83
362.68 K, 16992 kPa, x2 = 0.6235	855.82
362.68 K, 18022 kPa, x2 = 0.6235	859.78
362.68 K, 19000 kPa, x2 = 0.6235	863.4
362.68 K, 20047 kPa, x2 = 0.6235	867.1
362.68 K, 21057 kPa, x2 = 0.6235	870.49
362.68 K, 22005 kPa, x2 = 0.6235	873.58
362.68 K, 22981 kPa, x2 = 0.6235	876.69
362.68 K, 24005 kPa, x2 = 0.6235	879.78
362.68 K, 24998 kPa, x2 = 0.6235	882.71
362.73 K, 18005 kPa, x2 = 0.9311	641.86
362.73 K, 19024 kPa, x2 = 0.9311	662.81
362.73 K, 20021 kPa, x2 = 0.9311	680.44
362.73 K, 21028 kPa, x2 = 0.9311	696.02
362.73 K, 22008 kPa, x2 = 0.9311	709.54
362.73 K, 23017 kPa, x2 = 0.9311	722.12
362.73 K, 24029 kPa, x2 = 0.9311	733.65
362.73 K, 25019 kPa, x2 = 0.9311	744.01
362.75 K, 8032 kPa, x2 = 0.2876	891.2
362.75 K, 9018 kPa, x2 = 0.2876	892.47
362.75 K, 9986 kPa, x2 = 0.2876	893.65
362.75 K, 10994 kPa, x2 = 0.2876	894.89
362.75 K, 11002 kPa, x2 = 0.4268	890.57
362.75 K, 12000 kPa, x2 = 0.2876	896.09
362.75 K, 12008 kPa, x2 = 0.4268	892.17
362.75 K, 13010 kPa, x2 = 0.4268	893.74
362.75 K, 13037 kPa, x2 = 0.2876	897.35
362.75 K, 14000 kPa, x2 = 0.4268	895.32
362.75 K, 14023 kPa, x2 = 0.2876	898.48
362.75 K, 15027 kPa, x2 = 0.4268	896.84
362.75 K, 15039 kPa, x2 = 0.2876	899.66
362.75 K, 16011 kPa, x2 = 0.2876	900.77
362.75 K, 16015 kPa, x2 = 0.4268	898.33
362.75 K, 17017 kPa, x2 = 0.4268	899.81
362.75 K, 17019 kPa, x2 = 0.2876	901.92
362.75 K, 18012 kPa, x2 = 0.2876	903.04
362.75 K, 18013 kPa, x2 = 0.4268	901.24
362.75 K, 19006 kPa, x2 = 0.2876	904.14
362.75 K, 19024 kPa, x2 = 0.4268	902.72
362.75 K, 20028 kPa, x2 = 0.4268	904.14
362.75 K, 20035 kPa, x2 = 0.2876	905.27
362.75 K, 20994 kPa, x2 = 0.2876	906.3
362.75 K, 21039 kPa, x2 = 0.4268	905.51
362.75 K, 22014 kPa, x2 = 0.4268	906.89
362.75 K, 22029 kPa, x2 = 0.2876	907.43
362.75 K, 23004 kPa, x2 = 0.2876	908.45
362.75 K, 23027 kPa, x2 = 0.4268	908.24
362.75 K, 24034 kPa, x2 = 0.2876	909.57
362.75 K, 25002 kPa, x2 = 0.2876	910.55
362.79 K, 18033 kPa, x2 = 0.8091	777.33
362.79 K, 19005 kPa, x2 = 0.8091	784.9
362.79 K, 20003 kPa, x2 = 0.8091	792.49
362.79 K, 21014 kPa, x2 = 0.8091	799.75
362.79 K, 22017 kPa, x2 = 0.8091	806.5
362.79 K, 23043 kPa, x2 = 0.8091	813.1
362.79 K, 24052 kPa, x2 = 0.8091	819.28
362.79 K, 25083 kPa, x2 = 0.8091	825.05
